Usually IC50 stands for the point on the concentration scale where inhibition reaches its midpoint.

Our source for the IC50 values is US10844013B2, “Phenyl amino piperidine mTORC inhibitors and uses thereof” (Navitor Pharmaceuticals, Inc., priority 2016, dated 2020).

Test [1] relates to pAKT (p-Akt 1/2/3 (Ser473)) in MCF-7 cells. Put plainly: AlphaLISA Ultra pAKT assay. Type of test: cell-based. How it is done: Example 156: AlphaLISA Ultra pAKT Assay
(§1) Assay Protocol: • 1. MCF-7 cells in Corning 3701 plate and incubate for 20-24 hour. 16,000-20,000 cells will be seeded in 36 μL medium per well. • 2. Change the culture medium with fresh medium and incubate for another 2 hours. • 3. Add 12 μL (4×) compounds into the cell plate by HAMILTON. Final DMSO concentration is 0.5%. Incubate for 2 hours. • 4. Aspirate 38 j L by HAMILTON, 10 μL rest per well. • 5. Add 10 μL 2× lysis buffer using HAMILTON; total volume in wells is 20 μL. Allow cells to shake for 30 min. Cover plate by plastic foil and store plate at −80° C. up to analysis. • 6. Thaw cell lysate at RT and transfer 10 ul lysate to assay plate (Optiplate-384). • 7. Add 5 ul acceptor beads into assay plate and incubation for 2 hours • 8. Add 5 ul donor beads and incubation for 2 hours • 9. Count the plate by EnSpire Multimode Plate Reader
A general note: Bead proximity is the source of the signal in Alpha formats.

The test system of test [2] is pS6K1 (p-p70 S6 Kinase (Thr389)) in MCF-7 cells. Nature of the test: AlphaLISA Ultra pS6K1 assay. It is filed as cell-based. The note with it: 2 hours compound incubation. How it is done: Example 155: AlphaLISA Ultra pS6K1 assay
as §1, with “1. Seed” for “1.”, “20˜24” for “20-24”, “12,000˜16,000” for “16,000-20,000”, “μL” for “j L”

[3] abbreviates: Homo sapiens, MCF7, 2 hours compound incubation.
[4] abbreviates: 2 hours compound incubation, read-out: pAKT in MCF7: IC50.

Each structure is given as a SMILES string. Where a name gives a salt, the structure may show the parent alone. Read-outs that look alike come from different tables or passages of the source. A value given as a limit tells only on which side of the number the result lay.

As for `Cc1cc(C)c(C(=O)N2CCN(c3ccccn3)[C@H](CO)C2)cc1NC1CCN(c2ccccc2C#N)CC1` (single isomer, unassigned) [I-38, 2-[4-({5-[(3S or 3R)-3-(hydroxymethyl)-4-(pyridin-2-yl)piperazine-1-carbonyl]-2,4-dimethylphenyl}amino)piperidin-1-yl]benzonitrile], the IC50 in test [1] (setting [3]) is greater than 10 µM; in test [2] (Homo sapiens, MCF7, 2 h), 3000 to 5000 nM.
Turning to `Cc1cc(C)c(C(=O)N2CCN(c3ccccc3)[C@H](CO)C2)cc1NC1CCN(c2ccccc2C#N)CC1` (single isomer, unassigned) [I-40, 2-[4-({5-[3S or R-(hydroxymethyl)-4-phenylpiperazine-1-carbonyl]-2,4-dimethylphenyl}amino)piperidin-1-yl]benzonitrile], the IC50 in test [1] (setting [3]) is greater than 10 µM; in test [2] (Homo sapiens, MCF7, 2 h), 10 to 1000 nM.
The like results for `Cc1cc(C)c(C(=O)N2CCN(c3ccccc3)[C@@H](CO)C2)cc1NC1CCN(c2ccccc2C#N)CC1` (single isomer, unassigned) [I-41, 2-[4-({5-[3R or S-(hydroxymethyl)-4-phenylpiperazine-1-carbonyl]-2,4-dimethylphenyl}amino)piperidin-1-yl]benzonitrile] were, in that order, greater than 10 µM and 1000 to 3000 nM.
As to `Cc1cc(C)c(C(=O)N2CCN(c3ccccc3S(C)(=N)=O)CC2)cc1NC1CCN(c2ccccc2C#N)CC1` (single isomer, unassigned) [I-50, 2-(4-{[5-(4-{2-[(R or S)-imino(methyl)oxo-λ^6-sulfanyl]phenyl}piperazine-1-carbonyl)-2,4-dimethylphenyl]amino}piperidin-1-yl)benzonitrile], the IC50 in test [1] (setting [4]) was greater than 10 µM; in test [2] (read-out: pS6K1 in MCF7: IC50), 1000 to 3000 nM.
Take `Cc1cc(C)c(C(=O)N2CCN(c3ccccc3C#N)[C@@H](CO)C2)cc1NC1CCN(c2ccccc2C#N)CC1` (single isomer, unassigned) [I-77, 2-[4-({5-[(3R or 3S)-4-(2-Cyanophenyl)-3-(hydroxymethyl)piperazine-1-carbonyl]-2,4-dimethylphenyl}amino)piperidin-1-yl]benzonitrile]: the IC50 in test [1] (setting [3]) is greater than 10 µM; in test [2] (Homo sapiens, MCF7, 2 h) it was 10 to 1000 nM.
`Cc1ccc(NC2CCN(c3ccccc3C#N)CC2)cc1C(=O)N1CCN(c2ccccc2)C(CO)C1` (single isomer, unassigned) [I-82, 2-[4-({3-[(3R or S)-3-(hydroxymethyl)-4-phenylpiperazine-1-carbonyl]-4-methylphenyl}amino)piperidin-1-yl]benzonitrile]: the IC50 in test [1] (setting [3]) was greater than 10 µM; in test [2] (read-out: pS6K1 in MCF7: IC50) it was 3000 to 5000 nM.
Consider `Cc1ccc(NC2CCN(c3ccccc3C#N)CC2)cc1C(=O)N1CCN(c2ccccc2)C(CO)C1` (single isomer, unassigned) [I-83, 2-[4-({3-[(3S or R)-3-(hydroxymethyl)-4-phenylpiperazine-1-carbonyl]-4-methylphenyl}amino)piperidin-1-yl]benzonitrile], for which the concentration for half-maximal inhibition (IC50) in test [1] (setting [4]) was greater than 10 µM; in test [2] (read-out: pS6K1 in MCF7: IC50) it was 10 to 1000 nM.
In the case of `Cc1ccc(C(=O)N2CCN(c3ccccc3)C(CO)C2)cc1NC1CCN(c2ccccc2C#N)CC1` (single isomer, unassigned) [I-84, 2-[4-({5-[(3R or S)-3-(hydroxymethyl)-4-phenylpiperazine-1-carbonyl]-2-methylphenyl}amino)piperidin-1-yl]benzonitrile], the IC50 in test [1] (setting [3]) was greater than 10 µM; in test [2] (read-out: pS6K1 in MCF7: IC50), 1000 to 3000 nM.
Consider `Cc1ccc(C(=O)N2CCN(c3ccccc3)C(CO)C2)cc1NC1CCN(c2ccccc2C#N)CC1` (single isomer, unassigned) [I-85, 2-[4-({5-[(3S or R)-3-(hydroxymethyl)-4-phenylpiperazine-1-carbonyl]-2-methylphenyl}amino)piperidin-1-yl]benzonitrile], for which the IC50 is greater than 10 µM in test [1] (setting [4]) and 10 to 1000 nM in test [2] (read-out: pS6K1 in MCF7: IC50).
Take `Cc1cc(C)c(C(=O)N2CCN(c3cccc(F)c3[S@](C)(=N)=O)CC2)cc1NC1CCN(c2ccccc2C#N)CC1` (single isomer, unassigned) [I-89]: the IC50 in test [1] (setting [3]) was greater than 10 µM; in test [2] (Homo sapiens, MCF7, 2 h), 10 to 1000 nM.
The like results for `Cc1cc(C)c(C(=O)N2CCN(c3ncccc3[S@](C)(=N)=O)CC2)cc1NC1CCN(c2ccccc2C#N)CC1` (single isomer, unassigned) [I-93] were, in that order, greater than 10 µM and 1000 to 3000 nM.
The like results for `Cc1cc(C)c(C(=O)N2CCN(c3ccccc3S(C)(=N)=O)CC2)nc1NC1CCN(c2ccccc2C#N)CC1` (single isomer, unassigned) [I-126, 2-(4-(3,5-Dimethyl-6-(4-(2-(S-methylsulfonimidoyl)phenyl)piperazine-1-carbonyl)pyridin-2-ylamino)piperidin-1-yl)benzonitrile] were, in that order, greater than 10 µM and 10 to 1000 nM.
In the case of `CNC(=O)c1ccccc1N1CCN(C(=O)c2cc(NC3CCN(c4ccccc4C#N)CC3)c(C)cc2C)C[C@@H]1CO` (single isomer, unassigned) [I-133], the IC50 was greater than 10 µM in test [1] (setting [3]) and 1000 to 3000 nM in test [2] (Homo sapiens, MCF7, 2 h).
`CNC(=O)c1ccccc1N1CCN(C(=O)c2cc(NC3CCN(c4ccccc4C#N)CC3)c(C)cc2C)C[C@H]1CO` (single isomer, unassigned) [I-134]: the IC50 in test [1] (setting [3]) was greater than 10 µM; in test [2] (Homo sapiens, MCF7, 2 h) it was 1000 to 3000 nM.
Turning to `COc1cccc(N2CCC(Nc3cc(C(=O)N4CCN(c5ccccc5S(N)(=O)=O)CC4)c(C)cc3C)CC2)c1` [I-5, 2-(4-(5-(1-(3-Methoxyphenyl)piperidin-4-ylamino)-2,4-dimethylbenzoyl)piperazin-1-yl) benzenesulfonamide], the 50% inhibitory concentration (IC50) is greater than 10 µM in test [1] (setting [3]) and 1000 to 3000 nM in test [2] (Homo sapiens, MCF7, 2 h).
For `Cc1cc(C)c(C(=O)N2CCN(C(=O)OC(C)(C)C)[C@@H](CO)C2)cc1NC1CCN(c2ccccc2C#N)CC1` [I-7, (R)-tert-Butyl 4-(5-(1-(2-cyanophenyl)piperidin-4-ylamino)-2,4-dimethylbenzoyl)-2-(hydroxymethyl) piperazine-1-carboxylate] the same measures were greater than 10 µM and 1000 to 3000 nM.
The like results for `Cc1cc(C)c(C(=O)N2CCN[C@H](CO)C2)cc1NC1CCN(c2ccccc2C#N)CC1` [I-8, (S)-2-(4-(5-(3-(hydroxymethyl)piperazine-1-carbonyl)-2,4-dimethylphenylamino)piperidin-1-yl)benzonitrile] were, in that order, greater than 10 µM and greater than 10000 nM.
For the compound `Cc1cc(C)c(C(=O)N2CCN(C(=O)OC(C)(C)C)[C@H](CO)C2)cc1NC1CCN(c2ccccc2C#N)CC1` [I-9, (S)-tert-butyl 4-(5-(1-(2-cyanophenyl)piperidin-4-ylamino)-2,4-dimethylbenzoyl)-2-(hydroxymethyl)piperazine-1-carboxylate], the IC50 is greater than 10 µM in test [1] (setting [3]) and 1000 to 3000 nM in test [2] (Homo sapiens, MCF7, 2 h).
For `CCN(c1cc(C(=O)N2CCN(c3ccccc3S(N)(=O)=O)CC2)c(C)cc1C)C1CCN(c2ccccc2C#N)CC1C` (stereo not drawn) [I-10, 2-(4-(5-((1-(2-Cyanophenyl)-3-methylpiperidin-4-yl)(ethyl)amino)-2,4-dimethylbenzoyl)piperazin-1-yl)benzenesulfonamide] the same measures were greater than 10 µM and 1000 to 3000 nM.
For `Cc1ccc(C(=O)N2CCN(c3ccccc3S(N)(=O)=O)CC2)cc1NC1CCN(c2ccccc2C#N)CC1` [I-11] the same measures were greater than 10 µM and 3000 to 5000 nM.
With `Cc1nc(C)c(C(=O)N2CCN(c3ccccc3C#N)CC2)cc1NC1CCN(c2ccccc2C#N)CC1` [I-13, 2-(4-(5-(4-(2-Cyanophenyl)piperazine-1-carbonyl)-2,6-dimethylpyridin-3-ylamino)piperidin-1-yl)benzonitrile], the IC50 was greater than 10 µM in test [1] (setting [3]) and 3000 to 5000 nM in test [2] (Homo sapiens, MCF7, 2 h).
The like results for `Cc1cc(C)c(C(=O)N2CCN(c3cccc(F)c3S(N)(=O)=O)CC2)nc1NC1CCN(c2ccccc2C#N)CC1` [I-16, 2-(4-(6-(1-(2-Cyanophenyl)piperidin-4-ylamino)-3,5-dimethylpicolinoyl)piperazin-1-yl)-6-fluorobenzenesulfonamide] were, in that order, greater than 10 µM and 10 to 1000 nM.
With `Cc1cc(C)c(C(=O)N2CCN(c3ccccc3C#N)CC2)cc1NC1CCN(c2cccc(Cl)c2)CC1` [I-17, 2-(4-(5-(1-(3-Chlorophenyl)piperidin-4-ylamino)-2,4-dimethylbenzoyl)piperazin-1-yl)benzonitrile], the IC50 was greater than 10 µM in test [1] (setting [3]) and 1000 to 3000 nM in test [2] (Homo sapiens, MCF7, 2 h).
For `Cc1cc(C)c(C(=O)N2CCN(c3ccccc3C#N)CC2)cc1NC1CCN(c2cccc(C#N)c2)CC1` [I-18, 2-(4-(5-(1-(3-Cyanophenyl)piperidin-4-ylamino)-2,4-dimethylbenzoyl)piperazin-1-yl)benzonitrile trifluoroacetate] the same measures were greater than 10 µM and 1000 to 3000 nM.
